Assay results: patent US6288110A, “Pharmaceutical compositions comprising disulfiram” (Yeda Research and Development Co Ltd., priority 1998, dated 2001)
Entries after “also recorded” stand apart in the source; their conditions may differ.

Tests used:
BSMC = assay: TUNEL assay for apoptosis, BSMC; assay type: cell-based, bovine; conditions: 1 μM, 6 hours
Protocol: Cells were cultured on microscope slides for 48 hours in presence of growth media as described above, until reaching 40-50% confluency. Disulfiram was then added to the cells for 6 hours or for 20 hours in the case of BALB/MK keratinocytes, fixed with 4% paraformaldehyde and washed three times with PBS. Apoptosis was analyzed by the in situ TUNEL staining carried out as described (Wride, 1994). Briefly, microscope slides were incubated for 15 min in 2×SSC buffer at 60° C., washed in DDW and incubated with 20 μg/ml proteinase K (Boehringer Mannheim) for 15 min at room temperature. After a wash with DDW, endogenous peroxidases were inactivated by incubating the slides with 2% H2 O2 in PBST (PBS with 0.05% Tween 20) for 10 min at room temperature. Slides were then incubated in TdT buffer (Boehringer Mannheim) for 5 min at room temperature, and a reaction mixture containing 5×TdT buffer and 1 μl biotin-21-dUTP (Clontech, 1 mM stock) and 8 units of the TdT enzyme (Boehringer Mannheim) in total volume of 50 μl was subsequently added. The reactions were carried out at 37° C. for 1.5 hr in a humid chamber. The slides were washed in 2×SSC, DDW and finally with PBS and covered with 10% skim milk in PBST for 15 min. […]

BCE cells = assay: Apoptosis by FACS (DNA content) in BCE cells; assay type: cell-based, bovine; conditions: 0.5-5 μM, 20 hours
Protocol: Cells were cultured in plastic tissue culture dishes for 48 hours in presence of growth media as described above, until reaching 40-50% confluency. Disulfiram was then added to the cells for 20 hours. The cells were removed from the plates by EDTA-trypsin and fixed in ice-cold 70% ethanol (BioLab, Israel) in -20° C. for 2 hr to overnight. The fixed cells (2-5×10^6) were washed once with HEPES-buffered saline (HBSS) and incubated with 0.5 mg/ml RNAseH (Boehringer Mannheim). Afterwards the cells were resuspended in HBSS containing 50 μg/ml propidium iodide (Sigma) and subsequently analyzed on a FACSort flow cytometer (Beckton Dickinson Inc.) using Lysis II software. For the analysis, 10,000 cells were examined from each sample. The percentage of the hypodiploid cells was measured (Darzynkiewicz, 1992; Afanasyev, 1993). The cell cycle histogram was divided into four regions according to the cell cycle phases: Ap, apoptotic cells; G1, diploid cells; S, intermediate cells; and G2 /M, tetraploid cells.
Capillary endothelial cells were grown during 48 hours to 40-50% confluency and disulfiram was then added to the cells for 20 hours as described in section (g) of "Materials and Methods" above. […] The abundance of apoptotic cells was dose-dependent.

cisplatin nephrotoxicity = conditions: humans; cited from earlier work
liver tumors = conditions: dimethyl- or diethylnitrosamine, rats; cited from earlier work
[1] = tested on: bovine aortic vascular smooth muscle cells (BSMC); assay: DNA synthesis (3H-thymidine incorporation) in BSMC; assay type: cell-based
Protocol: Bovine aortic vascular smooth muscle cells (BSMC) were cultured in low glucose DMEM (1 g/liter) supplemented with 10% FCS (HyClone, Logan, Utah) and GPS.
Bovine capillary endothelial cells (BCE) and bovine aortic BSMC were plated in 24-well plates (6000 cells per well) in 500 μl DMEM medium supplemented with 10% Colorado calf serum (CCS) (GIBCO, USA) and GPS. After 24 hours, medium was changed to starvation medium (2% CCS, 0.5% BSA, GPS) for 24 hours. ^3 H-methyl-thymidine (5 μCi/ml) was added for the last 6 hours. DNA synthesis assays were performed as described above, in triplicates. DNA synthesis assays in BALB/MK keratinocytes were performed as previously described (Marikovsky, 1995).-DNA synthesis assays were performed in triplicates.
Disulfiram was prepared in 0.1 mM stock solutions in DMSO. […] Inhibition was calculated as percentage of DNA synthesis of control.
To determine whether disulfiram acts directly on endothelial cells rather than on accessory cells such as macrophages and mast cells that can be responsible for the development of an angiogenic response in vivo, the effect of the drug on the growth of BCE cells was examined in vitro as described in section (c) of "Materials and Methods" above. DNA synthesis in BCE cells was measured in presence of increasing concentrations of disulfiram incubated for 24 hours with the cells. […]

[2] = tested on: tumor progression from papilloma to squamous cell carcinoma; conditions: murine skin multistage carcinogenesis model; cited from earlier work
Meth A tumor cell = conditions: together with ascorbic acid, in vitro; cited from earlier work
[3] = tested on: neoplasia of the forestomach; conditions: benzo(a)pyrene, mice; cited from earlier work

CCN(CC)C(=S)SSC(=S)N(CC)CC [disulfiram, Bis(diethylthiocarbamoyl) disulfide]
apoptosis by TUNEL method (BSMC): not labeled; also recorded: did not induce
apoptosis by FACS analysis of DNA content (BCE cells): induced in a dose-dependent manner a sub-diploid apoptotic population; also recorded: appearance of a sub-diploid apoptotic population of cells
dose dependence of abundance of apoptotic cells (FACS) (BCE cells): dose-dependent
protection against cisplatin nephrotoxicity (cisplatin nephrotoxicity): did not show any protection
interference with induction of liver tumors (liver tumors): interfere with induction of cancer
maximal inhibitory activity (DNA synthesis) ([1]; 0.5-1 μM disulfiram): 80%
inhibition at 1 µM ([1]; Bos taurus, 1 μM, 4 hours of incubation): 50%
inhibition of tumor progression [2]: inhibit tumor progression
inhibition of Meth A tumor cell proliferation (Meth A tumor cell): augmented inhibition
interference with neoplasia of the forestomach [3]: interfere with induction of cancer
